Key:
Design in all cases: scale not given: the % may be the effect or the level left
[1] = biological target: Tyrosine-protein kinase ABL2 (Homo sapiens) (UniProt P42684); assay: Inhibition of human ABL2 assessed as enzyme activity at 1 uM using EAIYAAPFAKKK as substrate preincubated for 20 mins followed by [gamma-33P]-ATP addition and measured after 120 mins by radiometric Hot-SpotSM Kinase assay relative to control
[2] = biological target: Tyrosine-protein kinase Blk (Homo sapiens) (UniProt P51451); assay: Inhibition of human BLK assessed as enzyme activity at 1 uM using poly[Glu:Tyr] (4:1) as substrate preincubated for 20 mins followed by [gamma-33P]-ATP addition and measured after 120 mins by radiometric Hot-SpotSM Kinase assay relative to control
[3] = biological target: Ephrin type-A receptor 2 (Homo sapiens) (UniProt P29317); assay: Inhibition of human EPHA2 assessed as enzyme activity at 1 uM using poly[Glu:Tyr] (4:1) as substrate preincubated for 20 mins followed by [gamma-33P]-ATP addition and measured after 120 mins by radiometric Hot-SpotSM Kinase assay relative to control
[4] = biological target: Tyrosine-protein kinase Fgr (Homo sapiens) (UniProt P09769); assay: Inhibition of human FGR assessed as enzyme activity at 1 uM using poly[Glu:Tyr] (4:1) as substrate preincubated for 20 mins followed by [gamma-33P]-ATP addition and measured after 120 mins by radiometric Hot-SpotSM Kinase assay relative to control
[5] = biological target: Tyrosine-protein kinase Fyn (Homo sapiens) (UniProt P06241); assay: Inhibition of human FYN assessed as enzyme activity at 1 uM using poly[Glu:Tyr] (4:1) as substrate preincubated for 20 mins followed by [gamma-33P]-ATP addition and measured after 120 mins by radiometric Hot-SpotSM Kinase assay relative to control
[6] = biological target: G protein-coupled receptor kinase 5 (Homo sapiens) (UniProt P34947); assay: Inhibition of human GRK5 assessed as enzyme activity at 1 uM using casein as substrate preincubated for 20 mins followed by [gamma-33P]-ATP addition and measured after 120 mins by radiometric Hot-SpotSM Kinase assay relative to control
[7] = biological target: T1, Serine/threonine-protein kinase NLK (Homo sapiens) (UniProt Q9UBE8); assay: Inhibition of human NLK assessed as enzyme activity at 1 uM using myelin basic protein as substrate preincubated for 20 mins followed by [gamma-33P]-ATP addition and measured after 120 mins by radiometric Hot-SpotSM Kinase assay relative to control
T1 sequence (whole entry): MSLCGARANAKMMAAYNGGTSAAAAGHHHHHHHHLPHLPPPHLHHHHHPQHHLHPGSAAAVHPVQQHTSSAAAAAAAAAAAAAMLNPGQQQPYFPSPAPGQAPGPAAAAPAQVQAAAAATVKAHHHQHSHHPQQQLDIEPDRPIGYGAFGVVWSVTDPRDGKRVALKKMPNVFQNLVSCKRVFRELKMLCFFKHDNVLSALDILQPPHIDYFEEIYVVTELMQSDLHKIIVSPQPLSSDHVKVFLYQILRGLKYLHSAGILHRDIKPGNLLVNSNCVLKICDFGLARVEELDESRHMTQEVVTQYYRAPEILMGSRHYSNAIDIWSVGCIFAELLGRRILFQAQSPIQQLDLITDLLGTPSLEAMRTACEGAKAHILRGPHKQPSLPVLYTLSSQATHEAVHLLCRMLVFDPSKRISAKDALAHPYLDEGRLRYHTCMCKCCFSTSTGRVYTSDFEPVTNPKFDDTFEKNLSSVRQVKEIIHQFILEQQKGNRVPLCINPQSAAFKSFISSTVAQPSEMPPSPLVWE

[8] = biological target: T2, Phosphorylase b kinase gamma catalytic chain, liver/testis isoform (Homo sapiens) (UniProt P15735); assay: Inhibition of human PHKg2 assessed as enzyme activity at 1 uM using KKLNRTLSFAEPG as substrate preincubated for 20 mins followed by [gamma-33P]-ATP addition and measured after 120 mins by radiometric Hot-SpotSM Kinase assay relative to control
T2 sequence (whole entry): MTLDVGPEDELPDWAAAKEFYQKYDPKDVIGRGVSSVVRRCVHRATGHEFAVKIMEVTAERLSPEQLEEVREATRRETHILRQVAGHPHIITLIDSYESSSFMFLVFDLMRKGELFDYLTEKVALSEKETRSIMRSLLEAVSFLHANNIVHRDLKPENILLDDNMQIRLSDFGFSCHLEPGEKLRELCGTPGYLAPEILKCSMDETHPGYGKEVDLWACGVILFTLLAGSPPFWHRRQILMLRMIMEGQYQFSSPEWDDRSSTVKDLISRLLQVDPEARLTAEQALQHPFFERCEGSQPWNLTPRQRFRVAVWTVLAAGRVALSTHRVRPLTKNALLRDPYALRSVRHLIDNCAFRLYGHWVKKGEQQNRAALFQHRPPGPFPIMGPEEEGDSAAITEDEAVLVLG

[9] = biological target: Protein kinase C beta type (Homo sapiens) (UniProt P05771); assay: Inhibition of human PKCb2 assessed as enzyme activity at 1 uM using ERMRPRKRQGSVRRRV as substrate preincubated for 20 mins followed by [gamma-33P]-ATP addition and measured after 120 mins by radiometric Hot-SpotSM Kinase assay relative to control
[10] = biological target: Serine/threonine-protein kinase N3 (Homo sapiens) (UniProt Q6P5Z2); assay: Inhibition of human PKN3 assessed as enzyme activity at 1 uM using KKLNRTLSVA as substrate preincubated for 20 mins followed by [gamma-33P]-ATP addition and measured after 120 mins by radiometric Hot-SpotSM Kinase assay relative to control
[11] = biological target: Ribosomal protein S6 kinase alpha-2 (Homo sapiens) (UniProt Q15349); assay: Inhibition of human RSK3 assessed as enzyme activity at 1 uM using KKLNRTLSVA as substrate preincubated for 20 mins followed by [gamma-33P]-ATP addition and measured after 120 mins by radiometric Hot-SpotSM Kinase assay relative to control
[12] = biological target: Tyrosine-protein kinase Srms (Homo sapiens) (UniProt Q9H3Y6); assay: Inhibition of human SRMS assessed as enzyme activity at 1 uM using poly[Glu:Tyr] (4:1) as substrate preincubated for 20 mins followed by [gamma-33P]-ATP addition and measured after 120 mins by radiometric Hot-SpotSM Kinase assay relative to control
[13] = biological target: TRAF2 and NCK-interacting protein kinase (Homo sapiens) (UniProt Q9UKE5); assay: Inhibition of human TNIK assessed as enzyme activity at 1 uM using RLGRDKYKTLRQIRQ as substrate preincubated for 20 mins followed by [gamma-33P]-ATP addition and measured after 120 mins by radiometric Hot-SpotSM Kinase assay relative to control

Chain of Tyrosine-protein kinase Srms (Homo sapiens) (Q9H3Y6 whole entry): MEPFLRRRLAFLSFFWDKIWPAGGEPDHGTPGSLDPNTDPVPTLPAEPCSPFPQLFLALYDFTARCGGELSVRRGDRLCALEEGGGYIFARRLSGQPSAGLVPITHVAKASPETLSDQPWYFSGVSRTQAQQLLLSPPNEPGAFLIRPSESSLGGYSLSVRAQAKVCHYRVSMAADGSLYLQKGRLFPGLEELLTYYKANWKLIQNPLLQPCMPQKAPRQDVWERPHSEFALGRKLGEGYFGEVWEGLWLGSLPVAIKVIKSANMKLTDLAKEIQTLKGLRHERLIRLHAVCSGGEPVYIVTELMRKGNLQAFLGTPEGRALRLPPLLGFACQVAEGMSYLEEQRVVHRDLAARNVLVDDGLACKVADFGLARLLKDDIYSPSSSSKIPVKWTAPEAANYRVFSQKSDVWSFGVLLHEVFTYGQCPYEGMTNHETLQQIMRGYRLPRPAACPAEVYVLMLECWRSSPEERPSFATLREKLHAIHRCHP
Chain of Serine/threonine-protein kinase N3 (Homo sapiens) (Q6P5Z2 whole entry, looked up): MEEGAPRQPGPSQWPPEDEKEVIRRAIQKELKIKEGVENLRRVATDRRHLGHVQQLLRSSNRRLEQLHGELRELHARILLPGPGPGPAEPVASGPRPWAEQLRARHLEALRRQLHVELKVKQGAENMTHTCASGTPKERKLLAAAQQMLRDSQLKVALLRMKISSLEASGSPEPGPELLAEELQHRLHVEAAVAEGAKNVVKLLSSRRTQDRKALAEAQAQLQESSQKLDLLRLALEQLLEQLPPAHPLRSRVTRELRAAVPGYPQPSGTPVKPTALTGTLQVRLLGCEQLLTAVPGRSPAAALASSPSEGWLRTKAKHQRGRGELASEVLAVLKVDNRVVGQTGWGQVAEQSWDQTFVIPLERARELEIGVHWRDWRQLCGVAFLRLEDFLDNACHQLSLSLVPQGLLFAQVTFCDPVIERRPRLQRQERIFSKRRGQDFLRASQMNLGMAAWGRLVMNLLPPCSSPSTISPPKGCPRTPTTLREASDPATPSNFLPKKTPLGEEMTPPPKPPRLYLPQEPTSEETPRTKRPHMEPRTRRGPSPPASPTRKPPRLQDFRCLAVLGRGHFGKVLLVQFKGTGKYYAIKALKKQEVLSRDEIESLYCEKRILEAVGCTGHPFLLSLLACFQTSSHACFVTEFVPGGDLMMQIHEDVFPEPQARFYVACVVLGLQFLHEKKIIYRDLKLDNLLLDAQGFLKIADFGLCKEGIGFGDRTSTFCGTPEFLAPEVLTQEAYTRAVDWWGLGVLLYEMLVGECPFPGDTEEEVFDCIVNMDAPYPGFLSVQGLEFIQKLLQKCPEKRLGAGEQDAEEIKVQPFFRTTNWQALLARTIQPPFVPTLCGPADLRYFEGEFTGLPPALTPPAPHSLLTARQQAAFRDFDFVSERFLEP
Chain of Protein kinase C beta type (Homo sapiens) (P05771 2-671 limits assumed): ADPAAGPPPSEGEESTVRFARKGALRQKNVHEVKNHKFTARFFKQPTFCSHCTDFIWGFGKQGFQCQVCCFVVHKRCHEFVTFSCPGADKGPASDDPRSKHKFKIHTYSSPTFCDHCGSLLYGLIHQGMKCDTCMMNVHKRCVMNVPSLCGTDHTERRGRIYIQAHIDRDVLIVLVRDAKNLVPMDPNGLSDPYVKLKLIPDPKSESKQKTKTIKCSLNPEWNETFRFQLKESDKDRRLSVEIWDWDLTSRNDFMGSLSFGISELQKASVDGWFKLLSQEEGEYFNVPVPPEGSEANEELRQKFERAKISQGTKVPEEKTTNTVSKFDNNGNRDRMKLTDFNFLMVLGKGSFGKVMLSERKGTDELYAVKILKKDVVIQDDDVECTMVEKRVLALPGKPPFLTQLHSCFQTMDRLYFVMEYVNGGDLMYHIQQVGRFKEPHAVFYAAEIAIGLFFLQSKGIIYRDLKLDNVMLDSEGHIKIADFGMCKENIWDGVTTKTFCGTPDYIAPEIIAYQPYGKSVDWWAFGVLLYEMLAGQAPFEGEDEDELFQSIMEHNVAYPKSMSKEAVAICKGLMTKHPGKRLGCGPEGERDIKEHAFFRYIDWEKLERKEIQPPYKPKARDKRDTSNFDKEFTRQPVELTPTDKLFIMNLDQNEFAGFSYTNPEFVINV
Chain of Ribosomal protein S6 kinase alpha-2 (Homo sapiens) (Q15349 whole entry): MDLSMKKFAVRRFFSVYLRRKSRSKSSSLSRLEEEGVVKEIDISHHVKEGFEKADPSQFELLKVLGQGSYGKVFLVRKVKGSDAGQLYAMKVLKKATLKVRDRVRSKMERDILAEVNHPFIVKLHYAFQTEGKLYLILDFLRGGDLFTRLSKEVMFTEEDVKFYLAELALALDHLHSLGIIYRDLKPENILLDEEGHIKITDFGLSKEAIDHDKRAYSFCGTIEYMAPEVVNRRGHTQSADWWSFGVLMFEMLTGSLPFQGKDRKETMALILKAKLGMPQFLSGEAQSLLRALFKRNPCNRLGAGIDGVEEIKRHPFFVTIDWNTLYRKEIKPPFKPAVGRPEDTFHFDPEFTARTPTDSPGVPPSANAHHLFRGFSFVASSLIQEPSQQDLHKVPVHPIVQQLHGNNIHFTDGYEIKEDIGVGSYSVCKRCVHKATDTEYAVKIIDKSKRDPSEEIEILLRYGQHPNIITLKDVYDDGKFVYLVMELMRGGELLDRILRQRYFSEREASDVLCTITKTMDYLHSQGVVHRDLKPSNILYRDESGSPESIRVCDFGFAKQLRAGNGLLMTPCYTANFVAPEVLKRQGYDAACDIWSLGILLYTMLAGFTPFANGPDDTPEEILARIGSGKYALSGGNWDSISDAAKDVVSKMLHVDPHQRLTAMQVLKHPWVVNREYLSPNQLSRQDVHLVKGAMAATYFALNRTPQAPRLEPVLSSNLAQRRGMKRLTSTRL
Chain of Ephrin type-A receptor 2 (Homo sapiens) (P29317 whole entry): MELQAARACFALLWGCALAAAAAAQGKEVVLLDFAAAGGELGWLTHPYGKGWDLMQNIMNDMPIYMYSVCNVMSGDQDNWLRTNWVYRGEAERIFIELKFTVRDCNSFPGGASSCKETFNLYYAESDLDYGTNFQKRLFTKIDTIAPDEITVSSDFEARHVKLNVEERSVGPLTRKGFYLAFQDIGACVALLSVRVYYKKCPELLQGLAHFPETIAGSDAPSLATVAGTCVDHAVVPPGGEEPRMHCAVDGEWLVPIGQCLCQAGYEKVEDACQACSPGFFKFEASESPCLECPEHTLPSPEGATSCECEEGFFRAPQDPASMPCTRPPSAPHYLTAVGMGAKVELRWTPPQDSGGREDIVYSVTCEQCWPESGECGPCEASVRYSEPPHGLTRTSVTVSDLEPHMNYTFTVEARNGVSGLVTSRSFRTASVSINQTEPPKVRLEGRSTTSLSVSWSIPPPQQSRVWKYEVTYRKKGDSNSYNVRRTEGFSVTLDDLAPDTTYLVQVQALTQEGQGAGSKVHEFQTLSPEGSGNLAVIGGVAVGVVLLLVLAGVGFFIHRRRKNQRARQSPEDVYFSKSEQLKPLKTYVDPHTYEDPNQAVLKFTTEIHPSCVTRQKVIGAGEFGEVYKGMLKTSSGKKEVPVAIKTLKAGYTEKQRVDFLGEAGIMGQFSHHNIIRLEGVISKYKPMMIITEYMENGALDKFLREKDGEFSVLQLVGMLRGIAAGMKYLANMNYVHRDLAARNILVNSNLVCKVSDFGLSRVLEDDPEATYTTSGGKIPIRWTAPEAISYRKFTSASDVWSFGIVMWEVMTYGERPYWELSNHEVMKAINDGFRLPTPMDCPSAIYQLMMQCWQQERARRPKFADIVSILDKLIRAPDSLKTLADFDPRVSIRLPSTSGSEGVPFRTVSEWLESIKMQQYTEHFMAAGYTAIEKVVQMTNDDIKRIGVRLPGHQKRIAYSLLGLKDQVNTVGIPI
Chain of G protein-coupled receptor kinase 5 (Homo sapiens) (P34947 whole entry, looked up): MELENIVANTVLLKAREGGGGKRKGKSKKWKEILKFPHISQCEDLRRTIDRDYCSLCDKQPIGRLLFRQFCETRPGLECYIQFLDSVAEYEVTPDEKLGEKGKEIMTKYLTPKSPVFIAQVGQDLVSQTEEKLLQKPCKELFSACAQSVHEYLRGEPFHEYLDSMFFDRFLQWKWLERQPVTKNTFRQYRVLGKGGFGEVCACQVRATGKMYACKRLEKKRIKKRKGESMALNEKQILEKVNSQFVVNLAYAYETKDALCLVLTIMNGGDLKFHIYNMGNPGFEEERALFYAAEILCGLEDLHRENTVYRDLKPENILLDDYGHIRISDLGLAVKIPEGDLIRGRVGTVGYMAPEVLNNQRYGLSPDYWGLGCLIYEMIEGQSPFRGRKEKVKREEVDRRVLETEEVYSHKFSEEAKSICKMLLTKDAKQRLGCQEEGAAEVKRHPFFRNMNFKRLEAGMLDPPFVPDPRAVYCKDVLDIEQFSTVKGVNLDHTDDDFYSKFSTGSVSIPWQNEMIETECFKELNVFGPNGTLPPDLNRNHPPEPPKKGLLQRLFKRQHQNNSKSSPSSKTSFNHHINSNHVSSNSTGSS
Chain of Tyrosine-protein kinase Fgr (Homo sapiens) (P09769 2-529 limits assumed): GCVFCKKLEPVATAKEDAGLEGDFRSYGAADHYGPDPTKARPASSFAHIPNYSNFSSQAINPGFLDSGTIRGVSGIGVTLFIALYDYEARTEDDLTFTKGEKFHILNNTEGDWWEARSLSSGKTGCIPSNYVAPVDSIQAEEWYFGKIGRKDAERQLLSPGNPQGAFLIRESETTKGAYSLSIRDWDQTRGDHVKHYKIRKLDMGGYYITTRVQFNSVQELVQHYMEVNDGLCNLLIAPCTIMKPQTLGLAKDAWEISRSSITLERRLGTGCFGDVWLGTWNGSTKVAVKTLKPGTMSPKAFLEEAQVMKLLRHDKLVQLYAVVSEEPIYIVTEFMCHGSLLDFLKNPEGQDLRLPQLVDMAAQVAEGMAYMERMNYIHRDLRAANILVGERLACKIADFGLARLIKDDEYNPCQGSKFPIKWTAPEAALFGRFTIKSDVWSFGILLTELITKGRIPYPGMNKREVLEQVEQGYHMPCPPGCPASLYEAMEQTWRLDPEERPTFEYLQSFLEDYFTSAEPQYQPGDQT

| Compound | Activity [1] [%] | Activity [2] [%] | Activity [3] [%] | Activity [4] [%] | Activity [5] [%] | Activity [6] [%] | Activity [7] [%] | Activity [8] [%] | Activity [9] [%] | Activity [10] [%] | Activity [11] [%] | Activity [12] [%] | Activity [13] [%] |
| --- | --- | --- | --- | --- | --- | --- | --- | --- | --- | --- | --- | --- | --- |
| CC[C@H](Nc1ncnc2[nH]cnc12)c1nc2cccc(F)c2c(=O)n1-c1ccccc1 | 89.1 | 97.6 | 97 | 98.8 | 100 | 104 | 103 | 89.1 | 91 | 97.8 | 98.3 | 102 | 94.5 |
| CC(C)Oc1ccc(-c2nn([C@@H](C)c3oc4ccc(F)cc4c(=O)c3-c3cccc(F)c3)c3ncnc(N)c23)cc1F [UMBRALISIB] | 90.6 | 99.7 | 97.2 | 99.6 | 99.7 | 111 | 98.3 | 95.4 | 91.3 | 93.5 | 101 | 105 | 97.7 |
| C[C@H](Nc1ncnc2nc[nH]c12)c1cc2cccc(Cl)c2c(=O)n1-c1ccccc1 | 91.7 | 96.9 | 96.3 | 103 | 103 | 106 | 96.2 | 102 | 93.9 | 101 | 94.1 | 100 | 99.7 |
